Reference: the supplement of paper PMC10307832

Columns and labels:
Assay in all cases: relative viability (nuclei count vs DMSO), 5 days (fraction); higher = more cells survive
[1] = test system: SK-LU-1
In short: (§1)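 Relative viability divides the nuclei count in treated wells by that in vehicle wells. Lung cancer cell lines were seeded in 1536-well plates, dosed by pin tool the next day, and fixed and stained after 5 days in one step with final 0.05% Triton X-100, 1% formaldehyde and 1 ug/ml Hoechst. Dosing was a single drug or a fixed anchor-drug dose plus five library-drug doses (not always all listed) in √10 steps, and values are medians of duplicate plates imaged at 4×.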

[2] = test system: NCI-H1651
In short: as §1

[3] = test system: LXF-289
In short: as §1

[4] = test system: COR-L 105
In short: as §1

[5] = test system: NCI-H2347
In short: as §1

[6] = test system: SK-MES-1
In short: as §1

[7] = test system: NCI-H1793
In short: as §1

[8] = test system: LC-2-ad
In short: as §1

[9] = test system: EMC-BAC-2
In short: as §1

[10] = test system: LK-2
In short: as §1

[11] = test system: EKVX
In short: as §1

[12] = test system: H3255
In short: as §1

[13] = test system: PC-3 [JPC-3]
In short: as §1

[14] = test system: NCI-H2085
In short: as §1

[15] = test system: NCI-H1915
In short: as §1

[16] = test system: NCI-H1395
In short: as §1

[17] = test system: NCI-H1437
In short: as §1

[18] = test system: NCI-H661
In short: as §1

[19] = test system: NCI-H2087
In short: as §1

[20] = test system: NCI-H2228
In short: as §1

[21] = test system: CAL-12T
In short: as §1

[22] = test system: NCI-H1755
In short: as §1

[23] = test system: NCI-H1944
In short: as §1

How did the relative viability ([1]; first compound 0.08 µM) turn out when `CCCCCCCCCCCC1=C(O)C(=O)C=C(O)C1=O` [Embelin] + CS(=O)(=O)N1CCN(Cc2cc3nc(-c4cccc5[nH]ncc45)nc(N4CCOCC4)c3s2)CC1 [Pictilisib] (partner 1 µM) was run?
The relative viability was 0.676.

What about the relative viability ([1]; first compound 0.8 µM) of the same compound?
Its relative viability is 0.667.

What about the relative viability ([1]; first compound 2.53 µM) of the same compound?
Its relative viability is 0.678.

What about the relative viability ([1]; first compound 8 µM) of the same compound?
The relative viability was 0.541.

What about the relative viability ([2]; first compound 0.08 µM) of the same compound?
Its relative viability is 0.577.

What about the relative viability ([2]; first compound 0.8 µM) of the same compound?
The relative viability was 0.647.

What about the relative viability ([2]; first compound 2.53 µM) of the same compound?
The relative viability was 0.769.

And the relative viability ([2]; first compound 8 µM)?
Its relative viability is 0.607.

And the relative viability ([3]; first compound 0.08 µM)?
The relative viability was 0.855.

What about the relative viability ([3]; first compound 0.8 µM) of the same compound?
Its relative viability is 0.794.

What about the relative viability ([3]; first compound 2.53 µM) of the same compound?
The relative viability was 0.75.

What about the relative viability ([3]; first compound 8 µM) of the same compound?
The relative viability was 0.819.

What about the relative viability ([4]; first compound 0.08 µM) of the same compound?
The relative viability was 0.338.

What about the relative viability ([4]; first compound 0.8 µM) of the same compound?
The relative viability was 0.484.

What about the relative viability ([4]; first compound 2.53 µM) of the same compound?
The relative viability was 0.424.

And the relative viability ([4]; first compound 8 µM)?
The relative viability was 0.392.

And the relative viability ([5]; first compound 0.08 µM)?
Its relative viability is 0.64.

What about the relative viability ([5]; first compound 0.8 µM) of the same compound?
Its relative viability is 0.886.

And the relative viability ([5]; first compound 2.53 µM)?
Its relative viability is 0.924.

What about the relative viability ([5]; first compound 8 µM) of the same compound?
The relative viability was 0.592.

What about the relative viability ([6]; first compound 0.08 µM) of the same compound?
Its relative viability is 0.347.

What about the relative viability ([6]; first compound 0.8 µM) of the same compound?
Its relative viability is 0.421.

And the relative viability ([6]; first compound 2.53 µM)?
The relative viability was 0.35.

And the relative viability ([6]; first compound 8 µM)?
The relative viability was 0.359.

And the relative viability ([7]; first compound 0.08 µM)?
Its relative viability is 0.344.

What about the relative viability ([7]; first compound 0.8 µM) of the same compound?
Its relative viability is 0.366.

What about the relative viability ([7]; first compound 2.53 µM) of the same compound?
The relative viability was 0.361.

And the relative viability ([7]; first compound 8 µM)?
Its relative viability is 0.218.

And the relative viability ([8]; first compound 0.08 µM)?
Its relative viability is 0.458.

And the relative viability ([8]; first compound 0.8 µM)?
The relative viability was 0.566.

And the relative viability ([8]; first compound 2.53 µM)?
The relative viability was 0.618.

And the relative viability ([8]; first compound 8 µM)?
Its relative viability is 0.392.

What about the relative viability ([9]; first compound 0.08 µM) of the same compound?
Its relative viability is 0.498.

What about the relative viability ([9]; first compound 0.8 µM) of the same compound?
Its relative viability is 0.533.

What about the relative viability ([9]; first compound 2.53 µM) of the same compound?
Its relative viability is 0.442.

And the relative viability ([9]; first compound 8 µM)?
The relative viability was 0.476.

What about the relative viability ([10]; first compound 0.08 µM) of the same compound?
The relative viability was 0.567.

What about the relative viability ([10]; first compound 0.8 µM) of the same compound?
Its relative viability is 0.578.

What about the relative viability ([10]; first compound 2.53 µM) of the same compound?
The relative viability was 0.63.

What about the relative viability ([10]; first compound 8 µM) of the same compound?
Its relative viability is 0.562.

What about the relative viability ([11]; first compound 0.08 µM) of the same compound?
Its relative viability is 0.481.

What about the relative viability ([11]; first compound 0.8 µM) of the same compound?
Its relative viability is 0.437.

What about the relative viability ([11]; first compound 2.53 µM) of the same compound?
The relative viability was 0.406.

What about the relative viability ([11]; first compound 8 µM) of the same compound?
Its relative viability is 0.501.

And the relative viability ([12]; first compound 0.08 µM)?
Its relative viability is 0.574.

What about the relative viability ([12]; first compound 0.8 µM) of the same compound?
Its relative viability is 0.62.

What about the relative viability ([12]; first compound 2.53 µM) of the same compound?
The relative viability was 0.512.

What about the relative viability ([12]; first compound 8 µM) of the same compound?
Its relative viability is 0.525.

And the relative viability ([13]; first compound 0.08 µM)?
The relative viability was 0.733.

And the relative viability ([13]; first compound 0.8 µM)?
The relative viability was 0.759.

And the relative viability ([13]; first compound 2.53 µM)?
Its relative viability is 0.787.

And the relative viability ([13]; first compound 8 µM)?
The relative viability was 0.669.

What about the relative viability ([14]; first compound 0.08 µM) of the same compound?
Its relative viability is 0.44.

And the relative viability ([14]; first compound 0.8 µM)?
The relative viability was 0.404.

What about the relative viability ([14]; first compound 2.53 µM) of the same compound?
The relative viability was 0.44.

And the relative viability ([14]; first compound 8 µM)?
Its relative viability is 0.46.

What about the relative viability ([15]; first compound 0.08 µM) of the same compound?
Its relative viability is 1.06.

What about the relative viability ([15]; first compound 0.8 µM) of the same compound?
The relative viability was 1.08.

And the relative viability ([15]; first compound 2.53 µM)?
The relative viability was 0.952.

And the relative viability ([15]; first compound 8 µM)?
Its relative viability is 0.919.

And the relative viability ([16]; first compound 0.08 µM)?
Its relative viability is 0.608.

What about the relative viability ([16]; first compound 0.8 µM) of the same compound?
Its relative viability is 0.677.

What about the relative viability ([16]; first compound 2.53 µM) of the same compound?
The relative viability was 0.69.

And the relative viability ([16]; first compound 8 µM)?
The relative viability was 0.502.

And the relative viability ([17]; first compound 0.08 µM)?
Its relative viability is 0.469.

And the relative viability ([17]; first compound 0.8 µM)?
Its relative viability is 0.48.

What about the relative viability ([17]; first compound 2.53 µM) of the same compound?
Its relative viability is 0.5.

What about the relative viability ([17]; first compound 8 µM) of the same compound?
The relative viability was 0.364.

And the relative viability ([18]; first compound 0.08 µM)?
Its relative viability is 0.41.

And the relative viability ([18]; first compound 0.8 µM)?
The relative viability was 0.44.

And the relative viability ([18]; first compound 2.53 µM)?
Its relative viability is 0.348.

And the relative viability ([18]; first compound 8 µM)?
Its relative viability is 0.481.

What about the relative viability ([19]; first compound 0.08 µM) of the same compound?
Its relative viability is 0.885.

And the relative viability ([19]; first compound 0.8 µM)?
The relative viability was 0.96.

And the relative viability ([19]; first compound 2.53 µM)?
Its relative viability is 1.24.

What about the relative viability ([19]; first compound 8 µM) of the same compound?
The relative viability was 0.827.

And the relative viability ([20]; first compound 0.08 µM)?
The relative viability was 0.476.

What about the relative viability ([20]; first compound 0.8 µM) of the same compound?
Its relative viability is 0.375.

And the relative viability ([20]; first compound 2.53 µM)?
Its relative viability is 0.457.

And the relative viability ([20]; first compound 8 µM)?
Its relative viability is 0.366.

What about the relative viability ([21]; first compound 0.08 µM) of the same compound?
The relative viability was 0.49.

And the relative viability ([21]; first compound 0.8 µM)?
Its relative viability is 0.587.

And the relative viability ([21]; first compound 8 µM)?
Its relative viability is 0.391.

What about the relative viability ([22]; first compound 0.08 µM) of the same compound?
Its relative viability is 0.502.

And the relative viability ([22]; first compound 0.8 µM)?
The relative viability was 0.499.

And the relative viability ([22]; first compound 2.53 µM)?
The relative viability was 0.367.

And the relative viability ([22]; first compound 8 µM)?
The relative viability was 0.333.

And the relative viability ([23]; first compound 0.08 µM)?
The relative viability was 0.367.

What about the relative viability ([23]; first compound 0.8 µM) of the same compound?
The relative viability was 0.383.

And the relative viability ([23]; first compound 2.53 µM)?
Its relative viability is 0.36.

What about the relative viability ([23]; first compound 8 µM) of the same compound?
The relative viability was 0.306.
